Measured values published in patent publication US20050112573A1, “Method of detecting toxic substance” (priority 2001, published 2005).

Tested on: yeast genes (level of expressed mRNA)
Assay: DNA chip analysis of expressed mRNA of yeast genes after 2 h culture with a toxic chemical substance
Type: cell-based, Saccharomyces cerevisiae S288C
Settings: for The level of expressed mRNA in the presence of chemical substance/ (ratio to absence of chemical substance): stress protein genes, DNA chip
In short: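 S. cerevisiae S288C grown at 25° C in YPD; toxicant added at log phase at growth-inhibitory, non-lethal levels for 2 h, untreated cells as control. Poly(A) mRNA reverse-transcribed with Cy3/Cy5-dUTP, hybridized to whole-genome chip at 65° C >12 h; value is fluorescence ratio versus untreated.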

C[S+](C)[O-] [(15), dimethylsulfoxide]
The level of expressed mRNA in the presence of chemical substance/ in its absence, gene YDL078C (yeast gene YDL078C, ratio of DNA chip fluorescence intensity to that without chemical substance): 0.5 | The level of expressed mRNA in the presence of chemical substance/ (in its absence), gene YDL215C (yeast gene YDL215C, ratio of DNA chip fluorescence intensity to that without chemical substance): 1.1 | The level of expressed mRNA in the presence of chemical substance/The level of expressed mRNA in the absence of chemical substance (yeast gene YDL238C): 1.3 | The level of expressed mRNA in the presence of chemical substance/The level of expressed mRNA in the absence of chemical substance (yeast gene YDR055W): 5.7 | The level of expressed mRNA in the presence of chemical substance/ (in its absence), gene YDR073W (yeast gene YDR073W, ratio of DNA chip fluorescence intensity to that without chemical substance): 0.8 | The level of expressed mRNA in the presence of chemical substance/ in its absence, gene YDR079W (yeast gene YDR079W, energy system protein genes, 2 h culture with the chemical, ratio to control without chemical): 0.6 | The level of expressed mRNA in the presence of chemical substance/ (ratio to absence), gene YDR079W (yeast gene YDR079W, mitochondria-located protein genes, 2 h culture with chemical): 0.6 | The level of expressed mRNA in the presence of chemical substance/The level of expressed mRNA in the absence of chemical substance (yeast gene YDR084C): 3.9 | The level of expressed mRNA in the presence of chemical substance/The level of expressed mRNA in the absence of chemical substance (yeast gene YDR085C): 3.1 | The level of expressed mRNA in the presence of chemical substance/The level of expressed mRNA in the absence of chemical substance (yeast gene YDR104C): 1.4 | The level of expressed mRNA in the presence of chemical substance/The level of expressed mRNA in the absence of chemical substance (yeast gene YDR115W): 0.8 | The level of expressed mRNA in the presence of chemical substance/The level of expressed mRNA in the absence of chemical substance (yeast gene YDR259C): 2.9 | The level of expressed mRNA in the presence of chemical substance/ (in its absence), gene YDR297W (yeast gene YDR297W, ratio of DNA chip fluorescence intensity to that without chemical substance): 1.4 | The level of expressed mRNA in the presence of chemical substance/The level of expressed mRNA in the absence of chemical substance (yeast gene YDR315C): 1.5 | The level of expressed mRNA in the presence of chemical substance/The level of expressed mRNA in the absence of chemical substance (yeast gene YDR358W): 0.9 | The level of expressed mRNA in the presence of chemical substance/ (ratio to absence), gene YDR377W (yeast gene YDR377W, mitochondria-located protein genes, 2 h culture with chemical): 0.6 | The level of expressed mRNA in the presence of chemical substance/ (in its absence), gene YDR387C (yeast gene YDR387C, ratio of DNA chip fluorescence intensity to that without chemical substance): 1.4 | The level of expressed mRNA in the presence of chemical substance/The level of expressed mRNA in the absence of chemical substance (yeast gene YDR388W): 2.6 | The level of expressed mRNA in the presence of chemical substance/The level of expressed mRNA in the absence of chemical substance (yeast gene YDR481C): 3.5 | The level of expressed mRNA in the presence of chemical substance/The level of expressed mRNA in the absence of chemical substance (yeast gene YDR510W): 2.2 | The level of expressed mRNA in the presence of chemical substance/ (ratio to absence of chemical substance) (yeast gene YEL039C): 0.4 | The level of expressed mRNA in the presence of chemical substance/The level of expressed mRNA in the absence of chemical substance (yeast gene YEL066W): 1.0 | The level of expressed mRNA in the presence of chemical substance/ (in its absence), gene YER015W (yeast gene YER015W, ratio of DNA chip fluorescence intensity to that without chemical substance): 0.8 | The level of expressed mRNA in the presence of chemical substance/The level of expressed mRNA in the absence of chemical substance (yeast gene YER039C): 1.2 | The level of expressed mRNA in the presence of chemical substance/ (ratio to absence of chemical substance) (yeast gene YER057C): 1.7 | The level of expressed mRNA in the presence of chemical substance/The level of expressed mRNA in the absence of chemical substance (yeast gene YER107C): 0.7 | The level of expressed mRNA in the presence of chemical substance/The level of expressed mRNA in the absence of chemical substance (yeast gene YER130C): 1.1 | The level of expressed mRNA in the presence of chemical substance/The level of expressed mRNA in the absence of chemical substance (yeast gene YFL028C): 0.8 | The level of expressed mRNA in the presence of chemical substance/The level of expressed mRNA in the absence of chemical substance (yeast gene YFL043C): 1.1 | The level of expressed mRNA in the presence of chemical substance/ (in its absence), gene YGL035C (yeast gene YGL035C, ratio of DNA chip fluorescence intensity to that without chemical substance): 1.0 | The level of expressed mRNA in the presence of chemical substance/ (in its absence), gene YGL115W (yeast gene YGL115W, ratio of DNA chip fluorescence intensity to that without chemical substance): 0.7 | The level of expressed mRNA in the presence of chemical substance/ (ratio to absence of chemical substance) (yeast gene YGL115W): 0.7 | The level of expressed mRNA in the presence of chemical substance/The level of expressed mRNA in the absence of chemical substance (yeast gene YGL158W): 2.3 | The level of expressed mRNA in the presence of chemical substance/ (ratio to absence), gene YGL187C (yeast gene YGL187C, mitochondria-located protein genes, 2 h culture with chemical): 0.3 | The level of expressed mRNA in the presence of chemical substance/ (in its absence), gene YGL205W (yeast gene YGL205W, ratio of DNA chip fluorescence intensity to that without chemical substance): 2.0 | The level of expressed mRNA in the presence of chemical substance/The level of expressed mRNA in the absence of chemical substance (yeast gene YGL229C): 0.2 | The level of expressed mRNA in the presence of chemical substance/ in its absence, gene YGR062C (yeast gene YGR062C, energy system protein genes, 2 h culture with the chemical, ratio to control without chemical): 0.5 | The level of expressed mRNA in the presence of chemical substance/ (ratio to absence), gene YGR062C (yeast gene YGR062C, mitochondria-located protein genes, 2 h culture with chemical): 0.5 | The level of expressed mRNA in the presence of chemical substance/ (in its absence), gene YGR096W (yeast gene YGR096W, ratio of DNA chip fluorescence intensity to that without chemical substance): 0.9 | The level of expressed mRNA in the presence of chemical substance/The level of expressed mRNA in the absence of chemical substance (yeast gene YGR136W): 2.6 | The level of expressed mRNA in the presence of chemical substance/The level of expressed mRNA in the absence of chemical substance (yeast gene YGR189C): 9.3 | The level of expressed mRNA in the presence of chemical substance/The level of expressed mRNA in the absence of chemical substance (yeast gene YGR213C): 6.5 | The level of expressed mRNA in the presence of chemical substance/The level of expressed mRNA in the absence of chemical substance (yeast gene YGR257C): 1.3 | The level of expressed mRNA in the presence of chemical substance/ (in its absence), gene YGR287C (yeast gene YGR287C, ratio of DNA chip fluorescence intensity to that without chemical substance): 2.3 | The level of expressed mRNA in the presence of chemical substance/ (in its absence), gene YGR288W (yeast gene YGR288W, ratio of DNA chip fluorescence intensity to that without chemical substance): 0.8 | The level of expressed mRNA in the presence of chemical substance/ (ratio to absence of chemical substance) (yeast gene YHL028W): 0.6 | The level of expressed mRNA in the presence of chemical substance/ (ratio to absence of chemical substance) (yeast gene YHL046C): 1.0 | The level of expressed mRNA in the presence of chemical substance/The level of expressed mRNA in the absence of chemical substance (yeast gene YHR004C): 1.2 | The level of expressed mRNA in the presence of chemical substance/The level of expressed mRNA in the absence of chemical substance (yeast gene YHR071W): 3.0 | The level of expressed mRNA in the presence of chemical substance/The level of expressed mRNA in the absence of chemical substance (yeast gene YHR139C): 1.9 | The level of expressed mRNA in the presence of chemical substance/The level of expressed mRNA in the absence of chemical substance (yeast gene YHR142W): 4.8 | The level of expressed mRNA in the presence of chemical substance/ (in its absence), gene YHR210C (yeast gene YHR210C, ratio of DNA chip fluorescence intensity to that without chemical substance): 0.5 | The level of expressed mRNA in the presence of chemical substance/ (in its absence), gene YIL006W (yeast gene YIL006W, ratio of DNA chip fluorescence intensity to that without chemical substance): 1.5 | The level of expressed mRNA in the presence of chemical substance/ (ratio to absence of chemical substance) (yeast gene YIL011W): 0.9 | The level of expressed mRNA in the presence of chemical substance/The level of expressed mRNA in the absence of chemical substance (yeast gene YIL123W): 4.8 | The level of expressed mRNA in the presence of chemical substance/The level of expressed mRNA in the absence of chemical substance (yeast gene YIL140W): 3.3 | The level of expressed mRNA in the presence of chemical substance/ (in its absence), gene YJL070C (yeast gene YJL070C, ratio of DNA chip fluorescence intensity to that without chemical substance): 3.5
